# Results reported in patent US9150519B2, “6-amino-pyrimidine-4-carboxamide derivatives and related compounds which bind to the sphingosine 1-phosphate (S1P) receptor for the treatment of multiple sclerosis” (MERCK SERONO SA, priority 2007, dated 2015).
# Biological target: S1P3 (Homo sapiens (Human), UniProt Q99500)
# Assay: 35S-GTPγS binding assay, S1P3 membranes
# Format: biochemical
# Details: membranes from CHO cells expressing S1P3; read-out: S1P3 GTPyS EC50
# Description: (§1) Membranes were prepared from CHO cells expressing S1P1 or S1P3 for use in ligand and […] binding studies. Cells were suspended in 50 mM TRIS, pH 7.4, 2 mM EDTA, 250 mM Sucrose (buffer A) and 1× Complete protease inhibitor cocktail (Roche), and disrupted at 4° C. by nitrogen decompression using a cell disruption bomb (Parr Instrument). Following centrifugation at 1000 RPM for 10 min at 4° C., the supernatant was suspended in buffer A and centrifuged again at 19000 RPM for 60 min at 4° C. The pellet was then suspended in 10 mM HEPES, pH 7.4, 1 mM EDTA, 250 mM Sucrose (Buffer B), and 1× Complete EDTA-free protease inhibitor cocktail and homogenized using a potter. Membranes were flash frozen in liquid nitrogen and stored at −80° C. [33P]sphingosine 1-phosphate (3000 Ci/mmol; American Radiolabeled Chemicals, Inc.) was added to test compounds in DMSO. Membranes and WGA SPA beads (GE Healthcare) were added to give a final volume of 100 μl in 96-well plates with assay concentrations of 25 μM or 10 μM [33P]sphingosine 1-phosphate (respectively for S1P1 or S1P3), 50 mM HEPES, pH 7.5, 5 mM MgCl2, 100 mM NaCl, 0.4% fatty acid-free BSA, 1-5 μg/well of proteins and 100 μg/well of WGA SPA beads. Binding was performed for 60 min at room temperature on a shaker and bound radioactivity was measured on a PerkinElmer 1450 MicroBeta counter. Specific binding was calculated by subtracting remaining radioactivity in the presence of 1000-fold excess of unlabeled S1P. Binding data were analyzed using the GraphPad Prism program.
# Measurements of ^35S-GTPγS Binding: Membranes (1 to 10 μg protein) prepared as described above, were incubated in 96-well Scintiplates (PerkinElmer) with test compounds diluted in DMSO, in 180 μl of 20 mM HEPES, pH 7.4, 10 mM MgCl2, 2 μg/well Saponin, 0.2% fatty acid free BSA (Assay buffer), 140 mM NaCl and 1.7 μM GDP. The assay was initiated with the addition of 20 μl of 1.5 nM [35S]-GTPγS (1100 Ci/mmol; GE Healthcare) in assay buffer. After 60 min incubation at 30° C. on a shaker, plates were centrifuged for 10 min at 2000 RPM. Supernatant was discarded and membrane bound radioactivity was measured on a PerkinElmer 1450 MicroBeta counter. Triplicate samples were averaged and expressed as % response relative to SIP activation in absence of compound (n=2).
# Chain of S1P3 (Q99500 whole entry, species assumed): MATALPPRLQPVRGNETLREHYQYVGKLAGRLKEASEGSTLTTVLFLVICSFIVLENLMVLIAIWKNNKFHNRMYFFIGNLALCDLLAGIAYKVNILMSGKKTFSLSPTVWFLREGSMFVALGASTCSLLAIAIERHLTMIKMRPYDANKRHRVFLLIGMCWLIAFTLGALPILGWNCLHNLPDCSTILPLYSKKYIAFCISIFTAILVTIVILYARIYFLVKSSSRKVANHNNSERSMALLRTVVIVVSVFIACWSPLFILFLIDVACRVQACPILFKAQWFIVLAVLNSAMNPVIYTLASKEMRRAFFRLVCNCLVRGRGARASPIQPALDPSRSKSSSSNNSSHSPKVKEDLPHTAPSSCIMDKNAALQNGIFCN
row,EC50 [nM],SMILES
1,> 20000,CCCN(CC1CC1)c1cc(C(=O)Nc2cccc3[nH]ccc23)ncn1 [Example 1-113]
2,> 30000,O=C(Nc1ccc(O)c2ccccc12)c1cc(NC2CCCCC2)ncn1 [Example 1-5]
3,> 20000,CCCN(CC1CC1)c1cc(C(=O)Nc2ccc(CO)cc2C)ncn1 [Example 1-85]
4,> 30000,O=C(Nc1ccc(O)cc1Cl)c1cc(NC2CCCCC2)ncn1 [Example 1-8]
5,5650,CCCN(CC1CC1)c1cc(C(=O)Nc2ccc(S(=O)(=O)NCCC(=O)O)cc2C)ncn1 [Example 1-99]
6,> 30000,CN(c1cc(C(=O)Nc2ccc(O)cc2)ncn1)C1CCCCC1 [Example 1-19]
7,666,CC(C)CN(c1cc(C(=O)Nc2ccc3[nH]ncc3c2)ncn1)C1CCCC1 [Example 1-69]
8,> 30000,O=C(Nc1ccc(CCO)cc1)c1cc(NC2CCCCC2)ncn1 [Example 1-52]

# Biological target: S1P1 (Homo sapiens (Human), UniProt P21453)
# Sequence (P21453 whole entry, species assumed): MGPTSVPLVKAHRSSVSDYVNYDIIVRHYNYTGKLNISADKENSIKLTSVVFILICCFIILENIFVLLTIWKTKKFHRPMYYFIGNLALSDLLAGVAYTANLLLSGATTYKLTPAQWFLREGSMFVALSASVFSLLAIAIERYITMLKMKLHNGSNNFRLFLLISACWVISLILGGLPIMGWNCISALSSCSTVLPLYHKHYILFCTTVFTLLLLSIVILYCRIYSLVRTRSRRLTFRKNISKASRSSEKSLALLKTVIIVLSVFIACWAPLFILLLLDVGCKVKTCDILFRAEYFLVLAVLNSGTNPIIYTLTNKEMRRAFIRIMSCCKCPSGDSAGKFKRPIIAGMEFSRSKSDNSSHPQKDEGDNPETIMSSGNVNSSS
# Assay: 35S-GTPγS binding assay, S1P1 membranes
# Format: biochemical
# Details: membranes from CHO cells expressing S1P1; read-out: S1P1 GTPyS EC50
# Description: as §1, with “Membranes and WGA SPA beads (GE Healthcare) were added to give a final volume of 100 μl in 96-well plates with assay concentrations of 25 μM or 10 μM [33P]sphingosine 1-phosphate (respectively for S1P1 or S1P3), 50 mM HEPES, pH 7.5, 5 mM MgCl2, 100 mM NaCl, 0.4% fatty acid-free BSA, 1-5 μg/well of proteins and 100 μg/well of WGA SPA beads.” left out
# The assay was initiated with the addition of 20 μl of 1.5 nM [35S]-GTPγS (1100 Ci/mmol; GE Healthcare) in assay buffer. After 60 min incubation at 30° C. on a shaker, plates were centrifuged for 10 min at 2000 RPM. Supernatant was discarded and membrane bound radioactivity was measured on a PerkinElmer 1450 MicroBeta counter. Triplicate samples were averaged and expressed as % response relative to SIP activation in absence of compound (n=2).
row,EC50 [nM],SMILES
1,238,CCCN(CC1CC1)c1cc(C(=O)Nc2ccc(S(=O)(=O)NCCCC(=O)O)cc2C)ncn1 [Example 1-108]
2,596,CCCN(CC1CC1)c1cc(C(=O)Nc2ccc3nn(CC(=O)OCC)cc3c2)ncn1 [Example 1-120]
3,2160,CCC(NCc1ccc(NC(=O)c2cc(N(CC3CC3)C3CCCCC3)ncn2)cc1)C(=O)OC (centres unmarked) [Example 1-74]
4,101,CCCN(CC1CC1)c1cc(C(=O)Nc2ccc(CN)cc2)ncn1 [Example 1-88]
5,79,CCCN(CC1CC1)c1cc(C(=O)Nc2cccc(-n3cncn3)c2)ncn1 [Example 1-143]
6,1710,CCCN(CC1CC1)c1cc(C(=O)Nc2ccc3[nH]nc(CCC(=O)O)c3c2)ncn1 [Example 1-129]
7,660,Cc1cc(O)ccc1NC(=O)c1cc(N(C)C2CCCCC2)ncn1 [Example 1-21]
8,537,CCOC(=O)CCS(=O)(=O)Cc1ccc(NC(=O)c2cc(N(CC3CC3)C3CCCCC3)ncn2)cc1 [Example 1-130]
9,4360,O=C(Nc1ccc(C(=O)O)c(F)c1)c1cc(N(CC2CC2)C2CCCCC2)ncn1 [Example 1-122]
10,1580,O=C(Nc1ccc(O)c(F)c1)c1cc(NC2CCCCC2)ncn1 [Example 1-14]
11,6350,CCCN(CC1CC1)c1cc(C(=O)Nc2ccc3nn(CC(N)=O)cc3c2)ncn1 [Example 1-118]
12,391,CCCN(CC1CC1)c1cc(C(=O)Nc2ccc(CN(C)CCO)cc2C)ncn1 [Example 1-96]
13,39,NCc1ccc(NC(=O)c2cc(N(CC3CC3)C3CCCCC3)ncn2)cc1 [Example 1-48]
14,860,CCCN(CC1CC1)c1cc(C(=O)Nc2ccc3[nH]nc(CCC(=O)OC)c3c2)ncn1 [Example 1-123]
15,13300,Cc1cc(S(N)(=O)=O)ccc1NC(=O)c1cc(OC2CCCCC2)ncn1 [Example 1-65]
16,226,O=C(O)CCS(=O)(=O)Cc1ccc(NC(=O)c2cc(N(CC3CC3)C3CCCCC3)ncn2)cc1 [Example 1-133]
17,279,CCCN(CC1CC1)c1cc(C(=O)Nc2ccc(-n3cncn3)cc2)ncn1 [Example 1-146]
18,674,CN(c1cc(C(=O)Nc2ccc(S(N)(=O)=O)cc2)ncn1)C1CCCCC1 [Example 1-30]
19,1010,CCCN(CC1CC1)c1cc(C(=O)Nc2ccc3nn(CC(=O)O)cc3c2)ncn1 [Example 1-121]
20,610,Cc1cc(O)ccc1NC(=O)c1cc(N(C)C2CCC(C)CC2)ncn1 (centres unmarked) [Example 1-32]
21,970,Cc1cc(O)ccc1NC(=O)c1cc(NC2CCCCCC2)ncn1 [Example 1-23]
22,1070,CCCN(CC1CC1)c1cc(C(=O)Nc2ccc3c(cnn3CC(N)=O)c2)ncn1 [Example 1-117]
23,567,CCCN(CC1CC1)c1cc(C(=O)Nc2ccc(CNC)cc2C)ncn1 [Example 1-111]
24,1410,CCCN(CC1CC1)c1cc(C(=O)Nc2ccc(CN3CCC(O)CC3)cc2C)ncn1 [Example 1-140]
25,1230,CCCN(CC1CC1)c1cc(C(=O)Nc2ccc(S(=O)(=O)N(C)CC(=O)O)cc2C)ncn1 [Example 1-102]
26,1680,Cc1cc(O)ccc1NC(=O)c1cc(NC2CCCCC2C)ncn1 (centres unmarked) [Example 1-24]

row,EC50 [nM],SMILES
1,1990,NS(=O)(=O)c1ccc(NC(=O)c2cc(NC3CCCCC3)ncn2)cc1 [Example 1-17]
2,1320,CCCN(CC1CC1)c1cc(C(=O)Nc2ccc3nn(CC(=O)N(C)C)cc3c2)ncn1 [Example 1-114]
3,3260,CCCN(CC1CC1)c1cc(C(=O)Nc2ccc3c(cnn3CC(=O)O)c2)ncn1 [Example 1-116]
4,517,CCCN(CC1CC1)c1cc(C(=O)Nc2ccc(CNC(C)C(=O)O)cc2C)ncn1 (centres unmarked) [Example 1-104]
5,706,CCCN(CC1CC1)c1cc(C(=O)Nc2ccc(CN3CCCC3=O)cc2C)ncn1 [Example 1-98]
6,374,COc1cc(NS(C)(=O)=O)ccc1NC(=O)c1cc(NC2CCCCC2)ncn1 [Example 1-27]
7,1120,CCCN(CC1CC1)c1cc(C(=O)Nc2cccc(Cn3cncn3)c2)ncn1 [Example 1-152]
8,60,O=C(Nc1ccc(S(=O)(=O)NCC(O)CO)cc1)c1cc(N(CC2CC2)C2CCCCC2)ncn1 (centres unmarked) [Example 1-51]
9,1470,CCCN(CC1CC1)c1cc(C(=O)Nc2ccc(CN3CCOCC3)cc2C)ncn1 [Example 1-93]
10,1160,COC(=O)C(C)(C)NCc1ccc(NC(=O)c2cc(N(CC3CC3)C3CCCCC3)ncn2)cc1 [Example 1-83]
11,481,CCCN(CC1CC1)c1cc(C(=O)Nc2cccc(Cn3ccnc3)c2)ncn1 [Example 1-153]
12,216,COCCN(c1cc(C(=O)Nc2ccc3[nH]ncc3c2)ncn1)C(C)C [Example 1-87]
13,5050,CCCN(CC1CC1)c1cc(C(=O)Nc2ccc(CS(=O)(=O)CCC(=O)OCC)cc2)ncn1 [Example 1-119]
14,907,CN(c1cc(C(=O)Nc2ccc(S(=O)(=O)NCCO)cc2)ncn1)C1CCCCC1 [Example 1-37]
15,1350,CN(c1cc(C(=O)Nc2ccnc3ccccc23)ncn1)C1CCCCC1 [Example 1-43]
16,465,CCCN(CC1CC1)c1cc(C(=O)Nc2ccc(CN3CCC(O)C3)cc2C)ncn1 (centres unmarked) [Example 1-142]
17,2290,CCCN(CC1CC1)c1cc(C(=O)Nc2ccc(CN3CCCC(CO)C3)cc2C)ncn1 (centres unmarked) [Example 1-141]
18,2840,CCCN(CC1CC1)c1cc(C(=O)Nc2ccc3c(cnn3CC(=O)N(C)C)c2)ncn1 [Example 1-115]
19,127,Cc1cc(S(=O)(=O)N(C)CC(=O)O)ccc1NC(=O)c1cc(N(CC2CC2)C2CCCCC2)ncn1 [Example 1-101]
20,1050,CCCN(CC1CC1)c1cc(C(=O)Nc2cccc(Cn3cccn3)c2)ncn1 [Example 1-148]
21,3120,CCCN(CC1CC1)c1cc(C(=O)Nc2ccc(CS(=O)(=O)CCC(=O)O)cc2)ncn1 [Example 1-135]
22,821,CCCN(CC1CC1)c1cc(C(=O)Nc2ccc(CNCCOC)cc2C)ncn1 [Example 1-95]
23,268,CCCN(CC1CC1)c1cc(C(=O)Nc2ccc(CC3COC(=O)N3)cc2)ncn1 (centres unmarked) [Example 1-150]
24,208,CCCN(CC1CC1)c1cc(C(=O)Nc2ccc(S(=O)(=O)NCC(=O)O)cc2C)ncn1 [Example 1-103]
25,145,CCCN(CC1CC1)c1cc(C(=O)Nc2ccc3c(c2)CCNC3)ncn1 [Example 1-91]
